In US5430062A, “Stilbene derivatives as anticancer agents” (priority 1993, dated 1995):
“Also recorded” adds a separate entry of the source. Where a name gives a salt, the structure may show the parent alone. Read-outs that look alike come from different tables or passages of the source.

Tests used:
[1] = system: tubulin; test: Inhibition of tubulin polymerization (turbidimetry); type: biochemical, bovine
[2] = system: tubulin; test: Inhibition of [3H]colchicine binding to tubulin (DEAE-filter); parameters: species or system bovine; conditions: for Colchicine binding % inhibition: 1 μM tubulin, 5 μM [3H]colchicine, 5 μM inhibitor, 10 min, 37° C.
[3] = system: MLM melanoma; test: MTT cytotoxicity assay, MLM
[4] = system: A-549 lung carcinoma; test: MTT cytotoxicity assay, A-549; conditions: for IC50: Homo sapiens, A549, […]
[5] = system: MCF-7 breast carcinoma; test: MTT cytotoxicity assay, MCF-7; conditions: for IC50: Homo sapiens, MCF7, […]
[6] = system: HT-29 colon adenocarcinoma; test: MTT cytotoxicity assay, HT-29; conditions: for IC50: Homo sapiens, HT-29, […], read-out: Cytotoxicity ED50, HT-29
[7] = system: SKMEL-5 melanoma; test: MTT cytotoxicity assay, SKMEL-5; conditions: for IC50: Homo sapiens, SK-MEL-5, […], read-out: Cytotoxicity ED50, SKMEL-5
[8] = system: five cancer cell cultures; test: MTT cytotoxicity assay, five cancer cell cultures taken together; conditions: for less cytotoxic than 1a and 5a: relative to 1a and 5a; for cytotoxicity (in words): five cancer cell lines; for less cytotoxic than 8a / cytotoxicity reduced: relative to 8a
[9] = system: DMS 273 small cell lung cancer; test: Cytotoxicity, DMS 273; conditions: read-out: cytotoxicity GI50, DMS 273; 50% growth inhibition; average of two determinations; 8640 min
[10] = first series (Table VIII and text), 37° C., 20 min, read-out: Tubulin polymerization IC50 (±S.D.)
[11] = read-out: Cytotoxicity ED50, MLM
[12] = read-out: Cytotoxicity ED50, A-549
[13] = read-out: Cytotoxicity ED50, MCF-7
[14] = second series (Tables V-VII, IX), read-out: Inhibition of Tubulin Polymerization IC50 (±S.D.)
[15] = read-out: cytotoxicity ED50, A-549, MCF-7, HT-29, and SKMEL-5 cell cultures

| Compound | IC50 [1, 14] [nM] | IC50 [1, 10] [nM] | IC50 [3, 11] [nM] | IC50 [4, 12] [nM] | IC50 [5, 13] [nM] | IC50 [6] [nM] | IC50 [7] [nM] | further results |
| --- | --- | --- | --- | --- | --- | --- | --- | --- |
| COc1cc(/C=C\c2ccc(Cl)cc2)cc(OC)c1OC [5g, (Z)-1-(4-Chlorophenyl)-2-(3,4,5-trimethoxyphenyl)ethene] |  | 4800 | 170 | 80 | 180 | 50 | 10 | inhibition of tubulin polymerization (in words) [1]: strong inhibitors of tubulin polymerization; also recorded: active as inhibitors of tubulin polymerization; also recorded: small reductions; Colchicine binding % inhibition [2]: 55%; IC50 ([8]; read-out: cytotoxicity ED50): < 100 nM; less cytotoxic than 1a and 5a [8]: about 1000 -fold |
| COc1cc(/C=C\c2ccc(Br)cc2)cc(OC)c1OC [5h, (Z)-1-(4-Bromophenyl)-2-(3,4,5-trimethoxyphenyl)ethene] |  | 3100 | 14 | 11 | 16 | 8.2 | 6.7 | inhibition of tubulin polymerization (in words) [1]: strong inhibitors of tubulin polymerization; also recorded: active as inhibitors of tubulin polymerization; also recorded: small reductions; Colchicine binding % inhibition [2]: 73%; IC50 ([8]; read-out: cytotoxicity ED50): < 100 nM; less cytotoxic than 1a and 5a [8]: about 1000 -fold |
| CCN(CC)CCOc1ccc(CCc2cc(OC)c(OC)c(OC)c2)cc1 [17g] | > 40000 |  | > 25000 | 6800 | 4300 | 5200 | 8500 | cytotoxicity (in words) [8]: decreased cytotoxicity |
| COc1cc(CNc2ccc(C(C)C)cc2)cc(OC)c1OC [110f, 4-Isopropyl-N-(3,4,5-trimethoxybenzyl)aniline Hydrochloride] |  |  |  |  |  |  |  | IC50 ([1]; Table X, different glutamate preparation (1M monosodium glutamate and GTP), read-out: inhibn of tubulin polymn IC50 (±SD)): > 40000 nM; GI50 [9]: 12900 nM |
| COc1cc([C@@H]2c3cc4c(cc3[C@H](O)[C@H]3COC(=O)[C@H]23)OCO4)cc(OC)c1OC [Podophyllotoxin, reference compound] |  | […] |  |  |  |  |  | IC50 ([1]; Table X footnote b, different glutamate preparation, read-out: tubulin polymerization IC50, standard agents): […]; Colchicine binding % inhibition [2]: 88% |
| COc1ccc(CCc2cc(OC)c(OC)c(OC)c2)cc1O [compound 1c, reference compound] |  | 3300 | 10 | 10 | 330 | 8.1 | 2.1 | inhibition of colchicine binding (in words) [2]: inhibit the binding of radiolabeled colchicine to tubulin; Colchicine binding % inhibition [2]: 79% |
| COc1ccc(/C=C\c2cc(OC)c(OC)c(OC)c2)cc1 [compound 5a, (Z)-1-(4-Methoxyphenyl)-2-(3,4,5-trimethoxyphenyl)ethene] | 2500 | 2200 |  |  |  |  | 0.26 | inhibition of tubulin polymerization (in words) [1]: strong inhibitors of tubulin polymerization; times less cytotoxic than combretastatin A-4 (1a) ([3]; MLM): ~7 times; times less cytotoxic than combretastatin A-4 (1a) ([4]; A-549): about 20 times; times more cytotoxic than combretastatin A-4 (1a) ([5]; MCF-7): about 10 times; times more cytotoxic than combretastatin A-4 (1a) ([6]; HT-29): approximately 140 times; times less cytotoxic than combretastatin A-4 (1a) ([7]; SKMEL-5): ~30 times; IC50 ([8]; read-out: cytotoxicity ED50): < 1000 nM |
| COc1ccccc1/C=C\c1cc(OC)c(OC)c(OC)c1 [compound 5c, (Z)-1-(2-Methoxyphenyl)-2-(3,4,5-trimethoxyphenyl)ethene] |  |  | 8600 | 1100 | 1300 | 870 | 1200 | inhibition of tubulin polymerization (in words) [1]: low activity; cytotoxicity (in words) [8]: decreased the activity drastically |
| COc1ccc(/C=C\c2cc(OC)c(OC)c(OC)c2)c(Cl)c1 [compound 5e] |  | 3500 |  |  |  |  | 17 | inhibition of tubulin polymerization (in words) [1]: strong inhibitors of tubulin polymerization; also recorded: active as inhibitors of tubulin polymerization; also recorded: small reductions; Colchicine binding % inhibition [2]: 73%; IC50 ([3]; read-out: Cytotoxicity ED50, MLM, MLM, MTT, six days): 140 nM; IC50 ([4]; read-out: Cytotoxicity ED50, A-549, A-549, MTT, six days): 51 nM; IC50 ([5]; read-out: Cytotoxicity ED50, MCF-7, MCF-7, MTT, six days): 46 nM; cytotoxicity (in words) [8]: decreased the cytotoxicity; less cytotoxic than 1a and 5a [8]: about 1000 -fold |
| COc1cc(/C=C/c2ccc(N(C)C)cc2)cc(OC)c1OC [compound 6n, (E)-1-[4-(N,N-Dimethylamino)phenyl]-2-(3,4,5-trimethoxyphenyl)ethene] |  | > 50000 | 12.5 | 6.1 | 82 | 6.9 | 4.6 | inhibition of tubulin polymerization (in words) [1]: neither trans stilbene was able to significantly inhibit tubulin polymerization; IC50 ([8]; read-out: cytotoxicity ED50, in at least three cell lines): < 1000 nM |
| COc1ccc(NCc2cc(OC)cc(OC)c2)cc1 [compound 12d] |  | 29000 | > 25000 | 5710 | 6080 | 17800 | 2410 | Colchicine binding % inhibition [2]: 39% |
| COc1ccc(CC(C#N)c2cc(OC)c(OC)c(OC)c2)cc1 (stereo not shown) [compound 17h, 3-(4-Methoxyphenyl)-2-(3,4,5-trimethoxyphenyl)propanonitrile] | 11000 |  | 1600 | 9.6 | 14 | 7.5 | 4.1 | IC50 ([8]; read-out: cytotoxicity ED50, in at least four cell lines): < 1000 nM |
| COc1ccc(C(C#N)Cc2cc(OC)c(OC)c(OC)c2)cc1 (stereo not shown) [compound 17i, 2-(4-Methoxyphenyl)-3-(3,4,5-trimethoxyphenyl)propanonitrile] | > 40000 |  | 21100 | 11500 | 14300 | 9400 | 6400 | less cytotoxic than 8a / cytotoxicity reduced [8]: 10,000 -fold |
| COC(=O)C(Cc1cc(OC)c(OC)c(OC)c1)c1ccc(OC)cc1 (stereo not shown) [compound 17j, Methyl 2-(4-methoxyphenyl)-3-(3,4,5-trimethoxyphenyl)n-proponate] | > 40000 |  | > 25000 | > 25000 | > 25000 | > 25000 | > 25000 | IC50 ([8]; read-out: cytotoxicity ED50, five cancer cell lines): > 25000 nM |
| COc1ccc(C(=O)c2cc(OC)c(OC)c(OC)c2)cc1 [compound 27, 3,4,4',5-Tetramethoxybenzophenone] | 7400 |  | 13 | 11 | 15 | 13 | 12 | less cytotoxic than 8a / cytotoxicity reduced [8]: about 100 -fold |
| COc1ccc(C(O)c2cc(OC)c(OC)c(OC)c2)cc1 (stereo not shown) [compound 28, 4-Methoxyphenyl-(3,4,5-trimethoxyphenyl)methanol] | > 40000 |  | 16800 | 1500 | 1900 | 1200 | 1500 | cytotoxicity reduced relative to 27 ([8]; 28 relative to 27): 100 times |

Now from value to molecule, other results behind:

| IC50 [1, 14] [nM] | Compound | IC50 [1, 10] [nM] | IC50 [3, 11] [nM] | IC50 [4, 12] [nM] | IC50 [5, 13] [nM] | IC50 [6] [nM] | IC50 [7] [nM] | further results |
| --- | --- | --- | --- | --- | --- | --- | --- | --- |
| > 40000 | CCN(CC)CCOC(=O)/C(=C/c1ccc(OC)cc1)c1cc(OC)c(OC)c(OC)c1 [24e, (E)-(2-N,N-Diethylamino)ethyl-3-(4-methoxyphenyl)-2-(3,4,5-trimethoxyphenyl)-prop-2-enoate] |  | > 25000 | 1800 | 2100 | 2800 | 2700 | cytotoxicity (in words) [8]: did not show considerable cytotoxicity |
| > 40000 | CCN(CC)CCOC(=O)/C(=C/c1cccc(OC)c1)c1cc(OC)c(OC)c(OC)c1 [24f, (E)-(2-N,N-Diethylamino)ethyl-3-(3-methoxyphenyl)-2-(3,4,5-trimethoxyphenyl)-prop-2-enoate] |  | > 25000 | 7700 | 10400 | > 25000 | 6700 | cytotoxicity (in words) [8]: did not show considerable cytotoxicity |
| > 40000 | COC(=O)/C(=C/c1ccc(OC)cc1)c1cc(OC)c(OC)c(OC)c1 [compound 24a, (E)-Methyl 3-(4-methoxyphenyl)-2-(3,4,5-trimethoxyphenyl)-prop-2-enoate] |  | 9600 | 11 | 20 | 9.5 | 6.4 | IC50 [8, 15]: 6.4 to 50 nM |
| 35000 | CNC(=O)/C(=C/c1ccc(OC)cc1)c1cc(OC)c(OC)c(OC)c1 [compound 24c, (E)-N-Methyl-[3-(4-methoxyphenyl)-2-(3,4,5-trimethoxyphenyl)]-prop-2-enoamide] |  | 9300 | 24 | 50 | 26 | 24 | IC50 [8, 15]: 6.4 to 50 nM |
| > 40000 | CCNC(=O)/C(=C/c1ccc(OC)cc1)c1cc(OC)c(OC)c(OC)c1 [compound 24d, (E)-N-Ethyl-[3-(4-methoxyphenyl)-2-(3,4,5-trimethoxyphenyl)]-prop-2-enoamide] |  | > 25000 | 3400 | 3700 | 1800 | 7050 | cytotoxicity (in words) [8]: did not show considerable cytotoxicity |
